According to article PMC6478789, “A chemical toolbox for the study of bromodomains and epigenetic signaling” (Nature Communications, 2019):

Key:
BRD3(1) = BRD3(1) (Homo sapiens, UniProt Q15059); assay: BROMOscan ligand-binding assay; conditions: KD, BROMOscan Gene Symbol BRD3(1)
From the text: (§6) BROMOscan is a binding assay based on the well-known KINOMEscan technology. This assay measures the binding of a DNA-tagged bromodomain to an immobilized BRD ligand. If an inhibitor is present, it will compete with the bromodomain binding to the immobilized ligand, resulting in reduction of a quantitative PCR (qPCR) signal in a dose-dependent manner.

BRPF3 [1] = molecular target: T1, BRPF3 (Homo sapiens, UniProt Q9ULD4); assay: BROMOscan ligand-binding assay; conditions: KD, BRPF3
T1 sequence (Q9ULD4 589-693 limits assumed): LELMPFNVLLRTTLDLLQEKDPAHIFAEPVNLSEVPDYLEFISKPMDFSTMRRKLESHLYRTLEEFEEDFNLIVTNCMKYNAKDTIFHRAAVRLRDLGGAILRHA
From the text: as §6

BRD1 = molecular target: T2, BRD1 (Homo sapiens, UniProt O95696); assay: BROMOscan ligand-binding assay
T2 sequence (O95696 562-666 limits assumed): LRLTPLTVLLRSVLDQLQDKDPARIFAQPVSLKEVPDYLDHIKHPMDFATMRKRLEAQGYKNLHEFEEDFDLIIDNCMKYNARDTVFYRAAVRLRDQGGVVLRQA
From the text: as §6

FALZ = FALZ (Homo sapiens, UniProt Q12830); assay: BROMOscan ligand-binding assay; conditions: KD, FALZ
From the text: as §6

BRD8(1) = BRD8(1) (Homo sapiens, UniProt Q9H0E9); assay: BROMOscan ligand-binding assay
From the text: as §6

CECR2 = CECR2 (Homo sapiens, UniProt Q9BXF3); assay: BROMOscan ligand-binding assay; conditions: KD, CECR2
From the text: as §6

WDR9(2) = WDR9(2) (Homo sapiens, UniProt Q9NSI6); assay: BROMOscan ligand-binding assay; conditions: KD, WDR9(2)
From the text: as §6

PBRM1(2) = PBRM1(2) (Homo sapiens, UniProt Q86U86); assay: BROMOscan ligand-binding assay
From the text: as §6

GCN5L2 = molecular target: T3, GCN5L2 (Homo sapiens, UniProt Q92830); assay: BROMOscan ligand-binding assay
T3 sequence (Q92830 728-832 limits assumed): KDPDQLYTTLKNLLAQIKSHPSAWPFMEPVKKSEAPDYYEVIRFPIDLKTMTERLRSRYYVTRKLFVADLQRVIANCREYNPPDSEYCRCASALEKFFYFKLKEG
From the text: as §6

BRD4(1) = BRD4(1) (Homo sapiens, UniProt O60885); assay: BROMOscan ligand-binding assay
From the text: as §6

ATAD2A = molecular target: T4, ATAD2A (Homo sapiens, UniProt Q6PL18); assay: BROMOscan ligand-binding assay
T4 sequence (Q6PL18 980-1092 limits assumed): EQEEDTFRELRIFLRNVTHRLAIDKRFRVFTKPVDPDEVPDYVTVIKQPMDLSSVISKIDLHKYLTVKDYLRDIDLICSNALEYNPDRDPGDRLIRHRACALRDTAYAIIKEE
From the text: as §6

SND1 = molecular target: T5, SND1 (Homo sapiens, UniProt Q7KZF4); assay: Temperature shift assay (non-BRD reader domains); assay type: binding; conditions: 10µM compound
T5 sequence (Q7KZF4 729-787 limits assumed): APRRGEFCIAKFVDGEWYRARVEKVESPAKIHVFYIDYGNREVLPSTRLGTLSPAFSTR
Method: (§1) Temperature shift assays have been described by Fedorov et al.[46]. Recombinant protein domains (bromodomain or kinases) at a concentration of 2 μM in 10 mM HEPES, pH 7.5, and 500 mM NaCl were mixed with 10 μM of chemical probes. Temperature-dependent protein unfolding profiles were measured using a Real-Time PCR Mx3005p machine (Stratagene).
(§2) Wu et al., Supplementary figures and tables 14
(§3) Supplementary Table 3: Selectivity screening data (non-BRD reader domains):
(§4) Temperature shift assay data of BRD probes screened against a diver se panel of methyl-lysine
(§5) reader domains. Compounds were screened a concentration of 10 µM. Shown are temperature

RBBP1 = assay: Temperature shift assay (non-BRD reader domains); assay type: binding; conditions: 10µM compound
Method: as §1, §2, §3, §4, §5

TDRD3 = TDRD3 (Homo sapiens, UniProt Q9H7E2); assay: Temperature shift assay (non-BRD reader domains); assay type: binding; conditions: 10µM compound
Method: as §1, §2, §3, §4, §5

FXR1 = FXR1 (Homo sapiens, UniProt P51114); assay: Temperature shift assay (non-BRD reader domains); assay type: binding; conditions: 10µM compound
Method: as §1, §2, §3, §4, §5

UHRF1 = molecular target: T6, UHRF1 (Homo sapiens, UniProt Q96T88); assay: Temperature shift assay (non-BRD reader domains); assay type: binding; conditions: 10µM compound
T6 sequence (Q96T88 126-285 limits assumed): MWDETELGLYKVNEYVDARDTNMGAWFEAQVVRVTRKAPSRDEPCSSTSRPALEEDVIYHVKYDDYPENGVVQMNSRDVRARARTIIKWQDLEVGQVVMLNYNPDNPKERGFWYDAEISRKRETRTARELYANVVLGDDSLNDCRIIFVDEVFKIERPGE
Method: as §1, §2, §3, §4, §5

BRPF3 [2] = molecular target: BRPF3 (Homo sapiens, UniProt Q9ULD4); assay: Temperature shift assay (non-BRD reader domains); assay type: binding; conditions: 10µM compound
Method: as §1, §2, §3, §4, §5
Target sequence in this assay (Q9ULD4 1076-1159 limits assumed, species assumed): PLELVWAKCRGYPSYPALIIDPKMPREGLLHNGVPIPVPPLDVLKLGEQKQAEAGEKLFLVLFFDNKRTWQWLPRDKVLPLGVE

WDR5 = WDR5 (Homo sapiens, UniProt P61964); assay: Temperature shift assay (non-BRD reader domains); assay type: binding; conditions: 10µM compound
Method: as §1, §2, §3, §4, §5

53BP1 = 53BP1 (Homo sapiens, UniProt Q12888); assay: Temperature shift assay (non-BRD reader domains); assay type: binding; conditions: 10µM compound
Method: as §1, §2, §3, §4, §5

EED = EED (Homo sapiens, UniProt O75530); assay: Temperature shift assay (non-BRD reader domains); assay type: binding; conditions: 10µM compound
Method: as §1, §2, §3, §4, §5

BRPF1 = molecular target: T7, BRPF1 (Homo sapiens, UniProt P55201); assay: BROMOscan ligand-binding assay; conditions: KD, BRPF1
T7 sequence (P55201 628-732 limits assumed): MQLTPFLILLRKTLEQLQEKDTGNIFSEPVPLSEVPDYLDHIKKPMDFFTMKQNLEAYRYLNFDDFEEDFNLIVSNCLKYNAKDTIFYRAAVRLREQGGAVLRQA
From the text: as §6

BAZ2B = molecular target: T8, BAZ2B (Homo sapiens, UniProt Q9UIF8); assay: BROMOscan ligand-binding assay; conditions: KD, BROMOscan Gene Symbol BAZ2B
T8 sequence (Q9UIF8 2060-2164 limits assumed): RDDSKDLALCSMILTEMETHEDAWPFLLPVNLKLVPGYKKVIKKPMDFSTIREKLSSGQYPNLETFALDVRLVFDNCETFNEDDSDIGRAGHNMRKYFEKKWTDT
From the text: as §6

PBRM1(5) = PBRM1(5) (Homo sapiens, UniProt Q86U86); assay: BROMOscan ligand-binding assay
From the text: as §6

BRD2(2) = BRD2(2) (Homo sapiens, UniProt P25440); assay: BROMOscan ligand-binding assay
From the text: as §6

BRD4(1,2) = BRD4(1,2) (Homo sapiens, UniProt O60885); assay: BROMOscan ligand-binding assay
From the text: as §6

[3] = KD (BROMOscan), sheet prints no unit (nM)

Sequence of BRD8(1) (Q9H0E9 706-811 limits assumed): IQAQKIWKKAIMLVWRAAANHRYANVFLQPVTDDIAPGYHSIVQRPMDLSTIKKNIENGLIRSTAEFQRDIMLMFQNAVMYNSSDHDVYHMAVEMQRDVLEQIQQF
Sequence of PBRM1(5) (Q86U86 653-763 limits assumed): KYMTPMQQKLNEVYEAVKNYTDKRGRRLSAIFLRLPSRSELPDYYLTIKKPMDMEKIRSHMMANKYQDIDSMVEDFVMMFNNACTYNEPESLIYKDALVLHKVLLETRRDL
Sequence of PBRM1(2) (Q86U86 177-287 limits assumed): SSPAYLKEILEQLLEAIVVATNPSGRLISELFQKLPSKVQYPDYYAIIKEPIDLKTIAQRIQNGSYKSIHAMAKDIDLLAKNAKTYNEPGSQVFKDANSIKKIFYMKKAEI
Sequence of WDR9(2) (Q9NSI6 1313-1418 limits assumed): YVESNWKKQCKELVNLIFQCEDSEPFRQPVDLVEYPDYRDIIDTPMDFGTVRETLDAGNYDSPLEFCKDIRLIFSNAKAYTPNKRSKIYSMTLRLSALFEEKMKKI
Sequence of BRD2(2) (P25440 344-453 limits assumed): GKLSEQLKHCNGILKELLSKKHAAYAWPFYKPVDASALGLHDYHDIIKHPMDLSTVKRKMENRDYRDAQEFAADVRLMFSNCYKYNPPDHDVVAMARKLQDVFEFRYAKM
Sequence of EED (O75530 whole entry, species assumed, the tested form may be a part): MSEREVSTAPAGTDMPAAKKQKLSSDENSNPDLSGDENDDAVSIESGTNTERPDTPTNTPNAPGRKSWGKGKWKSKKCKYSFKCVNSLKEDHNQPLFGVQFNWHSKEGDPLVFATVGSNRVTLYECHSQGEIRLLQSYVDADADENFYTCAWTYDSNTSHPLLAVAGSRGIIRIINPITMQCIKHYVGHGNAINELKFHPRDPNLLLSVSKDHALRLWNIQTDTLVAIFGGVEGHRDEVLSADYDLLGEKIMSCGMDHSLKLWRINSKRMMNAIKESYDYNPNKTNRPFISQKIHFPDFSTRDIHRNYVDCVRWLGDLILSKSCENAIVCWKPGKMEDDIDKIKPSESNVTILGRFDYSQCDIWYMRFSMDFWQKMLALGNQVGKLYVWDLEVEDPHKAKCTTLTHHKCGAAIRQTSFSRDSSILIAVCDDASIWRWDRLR
Sequence of 53BP1 (Q12888 1484-1603 limits assumed, species assumed): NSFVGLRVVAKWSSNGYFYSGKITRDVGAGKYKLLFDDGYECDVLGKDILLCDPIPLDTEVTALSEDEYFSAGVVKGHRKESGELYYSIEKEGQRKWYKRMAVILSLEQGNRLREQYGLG
Sequence of CECR2 (Q9BXF3 434-538 limits assumed): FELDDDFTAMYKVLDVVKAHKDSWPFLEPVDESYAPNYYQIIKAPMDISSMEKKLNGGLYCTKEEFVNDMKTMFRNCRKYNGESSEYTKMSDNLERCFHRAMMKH
Sequence of TDRD3 (Q9H7E2 555-615 limits assumed, species assumed): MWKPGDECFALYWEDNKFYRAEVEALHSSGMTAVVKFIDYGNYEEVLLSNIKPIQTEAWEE
Sequence of FXR1 (P51114 2-132 limits assumed, species assumed): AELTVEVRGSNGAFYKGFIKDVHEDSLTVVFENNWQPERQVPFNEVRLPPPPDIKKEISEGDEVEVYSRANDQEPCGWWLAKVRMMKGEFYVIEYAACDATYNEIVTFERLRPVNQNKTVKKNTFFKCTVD
Sequence of BRD3(1) (Q15059 34-140 limits assumed): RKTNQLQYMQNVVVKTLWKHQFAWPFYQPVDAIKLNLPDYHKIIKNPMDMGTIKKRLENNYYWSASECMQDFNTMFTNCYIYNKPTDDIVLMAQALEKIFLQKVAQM

SMILES: CCC(=O)N1CCOc2c(cc(-c3ccc(OC)c(OC)c3)cc2OCC2CCCN(C)C2)C1 (stereo not drawn) [I-CBP112]
- Kd (BRD3(1)): 5.4 µM
- Kd (BRPF3 [1]): 95 µM
- Kd (BRD1): 51 µM
- Kd (FALZ): 5.5 µM
- Kd (BRD8(1); [3]): > 30000 nM
- Kd (BRD8(1); KD, BROMOscan Gene Symbol BRD8(1)): > 100000 nM
- Kd (CECR2): 17 µM
- Kd (WDR9(2)): 59 µM
- Kd (PBRM1(2); [3]): > 30000 nM
- Kd (PBRM1(2); KD, PBRM1(2)): > 100000 nM
- Kd (GCN5L2; [3]): > 30000 nM
- Kd (GCN5L2; KD, GCN5L2): > 100000 nM
- Kd (BRD4(1)): 2.9 µM
- Kd (ATAD2A; [3]): > 30000 nM
- Kd (ATAD2A; KD, BROMOscan Gene Symbol ATAD2A): > 100000 nM
- Tm (C) 10µM, temperature shift (SND1): -0.7 Kelvin
- Tm (C) 10µM, temperature shift (RBBP1): -0.1 Kelvin
- Tm (C) 10µM, temperature shift (TDRD3): -0.6 Kelvin
- Tm (C) 10µM, temperature shift (FXR1): 0.9 Kelvin
- Tm (C) 10µM, temperature shift (UHRF1): 0.0 Kelvin
- Tm (C) 10µM, temperature shift (BRPF3 [2]): 0.0 Kelvin
- Tm (C) 10µM, temperature shift (WDR5): -0.2 Kelvin
- Tm (C) 10µM, temperature shift (53BP1): 0.3 Kelvin
- Tm (C) 10µM, temperature shift (EED): -0.5 Kelvin
- Kd (BRPF1): 20 µM
- Kd (BAZ2B): 28 µM
- Kd (PBRM1(5); [3]): > 30000 nM
- Kd (PBRM1(5); KD, PBRM1(5)): > 100000 nM
- Kd (BRD2(2)): 26 µM
- Kd (BRD4(1,2)): 11 µM
